Measured values reported in patent US5373040A, “Amorphous solid modification of 2,2',2"-nitrilo[triethyl-tris-(3,3',5,5'-tetra-tert-butyl-1,1'-biphenyl- 2,2'-diyl)phosphite]” (Ciba-Geigy Corporation, priority 1993, dated 1994).

What was measured:
[1] = Process stabilization of polypropylene: yellowness index of plaques (ASTM D1925); conditions: in the presence of a representative phenolic antioxidant; versus prior art compound of U.S. Pat. No. 4,318,845
From the text: The test additives are incorporated into the polypropylene by dry blending or, when the additive is a liquid, using a minimum amount of methylene chloride solvent. The solvent is then removed by evaporation under reduced pressure.

[2] = Solubility in LLDPE film by diffusion-in, X-ray fluorescence; type: physicochemical
Procedure: Experiments are carried out to determine the solubility of the instant compound into linear low density polyethylene (LLDPE) films at 20° C., 40° C. and 60° C. by diffusion-in of a relatively homogeneous particle size (<70 microns) of the test sample suspended in silicon oil.
Each sample is carefully ground with a mortar and pestle and the particle size below 70 microns is separated by sieving with a 200 mesh screen. The powder is then suspended in silicon oil (polydimethylsiloxane, L-45, Union Carbide Chemicals) at a concentration of approximately 38% (wt/wt). A few drops of this suspension is placed on a 10 mil (0.254 mm) thick, 2"×2" (5.08 cm×5.08 cm) compression molded film and a second film of the same dimension is placed on top. The films are gently pressed together so that the suspension forms a thin liquid layer between the polymer films. Excess suspension is removed and the procedure is repeated till a stack of eight films (six films for evaluation) are prepared. The stack is then placed between two 2.5"×2.5" (6.35 cm×6.35 cm) ceramic tiles and wrapped in aluminum foil and held together with a G-clamp. Each stack is aged at 20° C., 40° C. and 60° C. under a nitrogen atmosphere. At specified intervals, a single film is removed from the stack and the excess suspension is washed from the film with hexane. The film is then analyzed by X-ray fluorescence for total phosphorus content. LLDPE containing 0, 1000 ppm and 2000 ppm of the test compound are used as standard controls for this X-ray fluorescence method.

[3] = Stabilization of polycarbonate: yellowness index; conditions: 0.08 weight percent plus 0.3 weight percent TINUVIN 329; versus UV absorber alone
Procedure: Additive free bisphenol A polycarbonate (LEXAN® 141-111N, General Electric) is dried and blended with 0.3 weight percent of a benzotriazole UV absorber TINUVIN® 329, Ciba-Geigy) and 0.08 weight percent of instant compound of Example 1. The mixture is extruded and pelletized at 550° F. (288° C.) on a 1" (2.54 cm) single screw extruder. Injection molded plaques (2"×2"×125 mil; 5.08 cm×5.08 cm×3.175 mm) are prepared in a BOY 30M injection molder at 560° F. (293° C.) with a mold temperature of 150° C. The resulting plaques are measured for yellowness index (YI) using ASTM D 1925-70.

[4] = Stabilization of poly(butylene terephthalate): intrinsic viscosity; conditions: 0.3% by weight; second pass extrudate and injection molded plaques; versus PBT containing no stabilizer
Procedure: Poly(butylene terephthalate), PBT (RYNITE® 9160, DuPont) is tumble blended with 0.3% by weight of the compound of instant Example 1. The polymer is then extruded and pelletized at 260° C. A portion of the collected pellets are reextruded under the same conditions for a second pass. The remainder from the first extrusion is injection molded into 2"×2"×125 mil (5.08 cm×5.08 cm×3.175 mm) plaques at 540° F. (282° C.) with a 100° C. mold temperature in a BOY 30M molder. Intrinsic viscosities of the second pass extrudate and the injection molded plaques are determined.

[5] = Stabilization of 6,6-nylon: yellowness index; conditions: 0.5% by weight; versus unstabilized control plaques
Procedure: 6,6-Nylon (ZYTEL® 101, DuPont) is thoroughly dried in a vacuum oven and tumble blended with 0.5% by weight of the compound of instant Example 1. The polyamide is extruded on a 1" (2.54 cm) MPM extruder at 575° F. (302° C.). The collected pellets are injection molder at 575° F. (302° C.) with the mold at 150° C. in a BOY 30M injection molder. The plaques obtained are measured for yellowness index (YI) values using ASTM D1925-70.

SMILES: CC(C)(C)c1cc(C(C)(C)C)c2op(OCCN(CCOp3oc4c(C(C)(C)C)cc(C(C)(C)C)cc4c4cc(C(C)(C)C)cc(C(C)(C)C)c4o3)CCOp3oc4c(C(C)(C)C)cc(C(C)(C)C)cc4c4cc(C(C)(C)C)cc(C(C)(C)C)c4o3)oc3c(C(C)(C)C)cc(C(C)(C)C)cc3c2c1 [Example 1, 2,2',2"-nitrilo[triethyl-tris-(3,3',5,5'-tetra-tert-butyl-1,1'-biphenyl-2,2'-diyl)phosphite]]
- stabilizing polypropylene against discoloration (change in yellowness index) [1]: equal or more effective
- Solubility of Compound in LLDPE at 20° C. ([2]; interval 15 (time unit not given)): 7200 ppm
- Solubility of Compound in LLDPE at 20° C. ([2]; interval 28 (time unit not given)): 5100 ppm
- Solubility of Compound in LLDPE at 20° C. ([2]; interval 35 (time unit not given)): 3800 ppm
- Solubility of Compound in LLDPE at 20° C. ([2]; interval 44 (time unit not given)): 4700 ppm
- Solubility of Compound in LLDPE at 40° C. ([2]; interval 10 (time unit not given)): 2500 ppm
- Solubility of Compound in LLDPE at 40° C. ([2]; interval 17 (time unit not given)): 2100 ppm
- Solubility of Compound in LLDPE at 40° C. ([2]; interval 25 (time unit not given)): 2400 ppm
- Solubility of Compound in LLDPE at 40° C. ([2]; interval 34 (time unit not given)): 1700 ppm
- Solubility of Compound in LLDPE at 40° C. ([2]; interval 40 (time unit not given)): 1900 ppm
- Solubility of Compound in LLDPE at 40° C. ([2]; interval 47 (time unit not given)): 2200 ppm
- Solubility of Compound in LLDPE at 20° C. ([2]; third section, interval 6 (time unit not given)): 3400 ppm
- Solubility of Compound in LLDPE at 20° C. ([2]; third section, interval 14 (time unit not given)): 4000 ppm
- Solubility of Compound in LLDPE at 20° C. ([2]; third section, interval 22 (time unit not given)): 4500 ppm
- Solubility of Compound in LLDPE at 20° C. ([2]; third section, interval 28 (time unit not given)): 3800 ppm
- Solubility of Compound in LLDPE at 20° C. ([2]; third section, interval 37 (time unit not given)): 4100 ppm
- solubility in LLDPE ([2]; versus prior art compound of Example 4 of U.S. Pat. No. 4,318,845): far more soluble
- yellowness index (YI) [3]: lower YI values
- retention of intrinsic viscosity value [4]: better retention of intrinsic viscosity value
- yellowness index (YI) [5]: lower YI values (less discoloration)
